PMC7862291, “Full-length in meso structure and mechanism of rat kynurenine 3-monooxygenase inhibition” (Communications Biology, 2021)
Several values for one entry are separate records, joined by “and”; a condition that tells them apart may be missing. Equal entries are not always repeated.

What was measured:
hKMO = target: T1, hKMO (Homo sapiens, UniProt O15229); test: Human KMO enzyme (cell-free) assay, NADPH consumption by absorbance; type: biochemical
T1 construct: purchased Origene
Description: (§1) Human KMO was purchased from Origene and used to assay compounds. Full-length Rat-KMO purified for crystallisation was used to assay compounds. Full-length Rat-KMO-expressing membranes were used for mutant assays (Fig. 4b) only. […] Images were taken using Odyssey CLX (LI-COR Biosciences) and quantified using ImageStudio2.0 (LI-COR Biosciences) software.
(§2) Test compounds were dissolved in DMSO and diluted with assay buffer containing 50 mM HEPES, 2 mM MgCl2, 0.5 mM EGTA, 1 mM DTT, 0.05% Tween20 and 0.005% of antiform SI (pH = about 7.9) to prepare a 4% DMSO solution. […] After 5 min of pre-incubation, reactions were started by adding 10 μL of substrate solution containing 2.4 mM kynurenine and 0.6 mM NADPH. Reactions were run for 90 min at 30 °C, then terminated by adding 5 μL of stop buffer (40 mM maleimide, 2 mM WST-9 and 0.1 mM 1-methoky PMS in water). […] Liposomal assays were performed in the same manner except that the composition of the assay buffer was changed (phosphate-buffered saline, 2 mM MgCl2, 1 mM DTT, 0.05% Tween 20).
(§3) Compound assays were analysed and plotted on graphs using Prism (GraphPad Software Inc. San Diego, CA, USA).

Rat KMO = target: T2, Rat KMO (Rattus norvegicus, UniProt O88867); test: Rat KMO enzyme (cell-free) assay, NADPH consumption by absorbance; type: biochemical
T2 construct: The GST-tagged full-length KMO (1-478) baculovirus vector contained a thrombin cleavage site; GST (thrombin cleavage site between GST and KMO) (N, cleaved yes); made in house; host or cells: Spodoptera frugiperda (Sf9), baculovirus
Description: as §1, §2, §3

[1] = target: T3, HEK293 cells stably expressing human KMO (Homo sapiens, UniProt O15229); test: Cell-based human KMO inhibition assay (LC/MS of 3-hydroxykynurenine)
T3 construct: expressed in transfected cells
Description: (§4) HEK293 cells stably expressing human or rat KMO were maintained in DMEM containing 10% fetal bovine serum, 50 units/mL penicillin, 50 μg/mL streptomycin and 0.2 mg⁄mL zeocine. […] After 2 overnights, the medium was replaced with 10 μL/well of assay buffer (1 × HBSS containing 20 mM HEPES). Ten microliters per well of the diluted test compounds (final, 0–30 μM, 0.3% DMSO) were added to the respective wells. After ~30 min of pre-incubation at 37 °C, reactions were started by adding 20 μL of substrate solution containing 0.2 mM kynurenine. Reactions were run for 2 h at 37 °C, the assay buffer was discarded and the plate was immediately frozen and stored at −30 °C until LC/MS analysis.
(§5) An 80 µL volume of cold acetonitrile with 2% formic acid was added to the cell pellet in a 384-well plate and centrifuged at 3000 rpm for 10 min at 4 °C. A 40 µL volume of the supernatant was transferred to a new 384-well plate and evaporated to dryness under nitrogen gas at 45 °C. The residue was reconstituted in 100 µL of acetonitrile/water (10:90, v/v) with 0.1% formic acid, and 1 µL was injected into the LC-MS/MS system.
(§6) LC/MS/MS was performed on a Shimadzu UFLC Nexera X2 (Shimadzu Corporation, Japan) and an QTRAP® 5500 LC-MS/MS System (SCIEX, Framingham, USA). Chromatographic separation was performed using an Allure PFP Propyl analytical column (5 µm, 2.1 × 100 mm) maintained at 50 °C. The autosampler temperature was set at 15 °C. The mobile phase consisted of formic acid/water/acetonitrile/methanol (0.5/500/250/250, v/v/v/v) and the flow rate was set at 0.3 mL/min. 3-hydroxykynurenine was eluted from the LC column at a retention time of 1.2 min. The MS system was operated using electrospray ionization (ESI) in positive mode. The optimum conditions were curtain gas, 20 psi; ion spray voltage, 5500 V; heated nebulizer temperature (TEM), 700 °C; nebulizing gas (GS1), 70 psi; and heater gas (GS2), 70 psi. […] Analyst® software (SCIEX, Framingham, USA) was used for system control and MultiQuant™ Software (SCIEX, Framingham, USA) was used for data analysis.
as §3

[2] = target: T4, HEK293 cells stably expressing rat KMO (Rattus norvegicus, UniProt O88867); test: Cell-based rat KMO inhibition assay (LC/MS of 3-hydroxykynurenine)
T4 construct: expressed in transfected cells
Description: as §4, §5, §6, §3

T4 sequence (O88867 whole entry): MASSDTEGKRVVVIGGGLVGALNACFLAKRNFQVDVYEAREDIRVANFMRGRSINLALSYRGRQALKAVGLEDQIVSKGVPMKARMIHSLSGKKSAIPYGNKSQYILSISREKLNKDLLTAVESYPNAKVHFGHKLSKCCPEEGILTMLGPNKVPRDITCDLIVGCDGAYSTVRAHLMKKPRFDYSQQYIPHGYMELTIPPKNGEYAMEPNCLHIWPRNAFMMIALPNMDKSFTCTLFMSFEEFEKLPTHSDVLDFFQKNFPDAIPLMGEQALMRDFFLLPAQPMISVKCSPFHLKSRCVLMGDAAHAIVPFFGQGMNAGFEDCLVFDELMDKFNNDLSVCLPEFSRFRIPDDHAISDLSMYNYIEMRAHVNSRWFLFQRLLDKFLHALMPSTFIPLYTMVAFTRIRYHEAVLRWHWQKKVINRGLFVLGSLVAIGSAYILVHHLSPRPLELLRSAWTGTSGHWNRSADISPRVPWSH
T2 sequence (O88867 whole entry): as above
T1 sequence (O15229 whole entry): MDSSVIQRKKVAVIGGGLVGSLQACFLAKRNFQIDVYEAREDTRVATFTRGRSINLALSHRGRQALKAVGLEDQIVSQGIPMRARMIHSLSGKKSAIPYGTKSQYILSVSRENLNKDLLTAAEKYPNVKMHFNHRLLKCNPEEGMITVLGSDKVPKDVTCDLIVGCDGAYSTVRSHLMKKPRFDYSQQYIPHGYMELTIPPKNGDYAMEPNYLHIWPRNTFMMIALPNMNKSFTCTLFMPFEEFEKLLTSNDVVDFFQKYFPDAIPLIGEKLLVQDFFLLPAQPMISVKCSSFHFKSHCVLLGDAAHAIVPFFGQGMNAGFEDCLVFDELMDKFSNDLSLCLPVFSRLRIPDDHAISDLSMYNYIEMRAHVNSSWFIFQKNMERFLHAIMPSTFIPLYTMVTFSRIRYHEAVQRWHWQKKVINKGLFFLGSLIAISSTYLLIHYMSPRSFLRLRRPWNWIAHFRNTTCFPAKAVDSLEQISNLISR
T3 sequence (O15229 whole entry): as above

`Cc1cnn(-c2cccc(C(=O)O)c2)c1-c1ccc(Cl)c(F)c1` [Compound 2] was tested, and the IC50 (hKMO; cell-free enzyme assay, high kynurenine, read-out: Human KMO IC50) was 0.0071 µM, the “inhibition rate, Hs-KMO cell-free assay (Figure 1A source data)” value (shortened to “inhibition rate, Hs-KMO cell-free assay”) (hKMO; conc 0.0003 μM, duplicates) was 0.420% and -1.736% and the “inhibition rate, Hs-KMO cell-free assay” value (hKMO; conc 0.001 μM, duplicates) was 9.914%. For the same compound, the inhibition at 0.001 µM (hKMO; conc 0.001 μM, duplicates, read-out: inhibition rate, Hs-KMO cell-free assay (Figure 1A source data)) was 12.1%, the “inhibition rate, Hs-KMO cell-free assay” value (hKMO; conc 0.003 μM, duplicates) was 25.289% and the inhibition at 0.003 µM (hKMO; conc 0.003 μM, duplicates, read-out: inhibition rate, Hs-KMO cell-free assay (Figure 1A source data)) was 27.2%. For the same compound, the “inhibition rate, Hs-KMO cell-free assay” value (hKMO; conc 0.01 μM, duplicates) was 59.651%, the inhibition at 0.01 µM (hKMO; conc 0.01 μM, duplicates, read-out: inhibition rate, Hs-KMO cell-free assay (Figure 1A source data)) was 57.4% and the “inhibition rate, Hs-KMO cell-free assay” value (hKMO; conc 0.03 μM, duplicates) was 87.349%. For the same compound, the inhibition at 0.03 µM (hKMO; conc 0.03 μM, duplicates, read-out: inhibition rate, Hs-KMO cell-free assay (Figure 1A source data)) was 85.6%, the “inhibition rate, Hs-KMO cell-free assay” value (hKMO; conc 0.1 μM, duplicates) was 95.022% and the inhibition at 0.1 µM (hKMO; conc 0.1 μM, duplicates, read-out: inhibition rate, Hs-KMO cell-free assay (Figure 1A source data)) was 96.5%. For the same compound, the “inhibition rate, Hs-KMO cell-free assay” value (hKMO; conc 0.3 μM, duplicates) was 105.860%, the inhibition at 0.3 µM (hKMO; conc 0.3 μM, duplicates, read-out: inhibition rate, Hs-KMO cell-free assay (Figure 1A source data)) was 100% and the “inhibition rate, Hs-KMO cell-free assay” value (hKMO; conc 1 μM, duplicates) was 100.287%. The inhibition at 1 µM (hKMO; conc 1 μM, duplicates, read-out: inhibition rate, Hs-KMO cell-free assay (Figure 1A source data)) was 102%, the IC50 (Rat KMO; cell-free enzyme assay, high kynurenine) was 0.15 µM and the “inhibition rate, Rat-KMO cell-free assay (Figure 1B source data)” value (“inhibition rate, Rat-KMO cell-free assay” below) (Rat KMO; conc 0.03 μM, duplicates) was 20.744%. For the same compound, the inhibition at 0.03 µM (Rat KMO; conc 0.03 μM, duplicates, read-out: inhibition rate, Rat-KMO cell-free assay (Figure 1B source data)) was 18%, the “inhibition rate, Rat-KMO cell-free assay” value (Rat KMO; conc 0.1 μM, duplicates) was 47.122% and the inhibition at 0.1 µM (Rat KMO; conc 0.1 μM, duplicates, read-out: inhibition rate, Rat-KMO cell-free assay (Figure 1B source data)) was 46%. For the same compound, the “inhibition rate, Rat-KMO cell-free assay” value (Rat KMO; conc 0.3 μM, duplicates) was 63.717%, the inhibition at 0.3 µM (Rat KMO; conc 0.3 μM, duplicates, read-out: inhibition rate, Rat-KMO cell-free assay (Figure 1B source data)) was 62.8% and the “inhibition rate, Rat-KMO cell-free assay” value (Rat KMO; conc 1 μM, duplicates) was 81.108%. The inhibition at 1 µM (Rat KMO; conc 1 μM, duplicates, read-out: inhibition rate, Rat-KMO cell-free assay (Figure 1B source data)) was 84.3%, the “inhibition rate, Rat-KMO cell-free assay” value (Rat KMO; conc 3 μM, duplicates) was 90.360% and the inhibition at 3 µM (Rat KMO; conc 3 μM, duplicates, read-out: inhibition rate, Rat-KMO cell-free assay (Figure 1B source data)) was 87.2%. The “inhibition rate, Rat-KMO cell-free assay” value (Rat KMO; conc 10 μM, duplicates) was 90.175%, the inhibition at 10 µM (Rat KMO; conc 10 μM, duplicates, read-out: inhibition rate, Rat-KMO cell-free assay (Figure 1B source data)) was 91.4% and the “inhibition rate, Rat-KMO cell-free assay” value (Rat KMO; conc 30 μM, duplicates) was 94.310%. For the same compound, the inhibition at 30 µM (Rat KMO; conc 30 μM, duplicates, read-out: inhibition rate, Rat-KMO cell-free assay (Figure 1B source data)) was 91.7%, the “inhibition rate, Rat-KMO cell-free assay” value (Rat KMO; conc 100 μM, duplicates) was 101.150% and the inhibition at 100 µM (Rat KMO; conc 100 μM, duplicates, read-out: inhibition rate, Rat-KMO cell-free assay (Figure 1B source data)) was 89.9%. For the same compound, the inhibition at 0.03 µM ([1]; HEK293, conc 0.03 μM, duplicates, read-out: inhibition rate, Hs-KMO cellular assay (Figure 1C source data)) was 51.3%, the inhibition at 0.1 µM ([1]; HEK293, conc 0.1 μM, duplicates, read-out: inhibition rate, Hs-KMO cellular assay (Figure 1C source data)) was 76.7% and the inhibition at 0.3 µM ([1]; HEK293, conc 0.3 μM, duplicates, read-out: inhibition rate, Hs-KMO cellular assay (Figure 1C source data)) was 92.2%. It also gave an inhibition at 1 µM ([1]; HEK293, conc 1 μM, duplicates, read-out: inhibition rate, Hs-KMO cellular assay (Figure 1C source data)) of 102%, an inhibition at 3 µM ([1]; HEK293, conc 3 μM, duplicates, read-out: inhibition rate, Hs-KMO cellular assay (Figure 1C source data)) of 104% and an inhibition at 10 µM ([1]; HEK293, conc 10 μM, duplicates, read-out: inhibition rate, Hs-KMO cellular assay (Figure 1C source data)) of 104%. The inhibition at 30 µM ([1]; HEK293, conc 30 μM, duplicates, read-out: inhibition rate, Hs-KMO cellular assay (Figure 1C source data)) was 105%, the IC50 ([1]; HEK293 cells expressing human KMO, LC/MS, read-out: Human cell-based assay IC50) was 0.03 µM and the “inhibition rate, Hs-KMO cellular assay (Figure 1C source data)” value (shortened to “inhibition rate, Hs-KMO cellular assay”) ([1]; conc 0.03 μM, duplicates) was 49.094%. The “inhibition rate, Hs-KMO cellular assay” value ([1]; conc 0.1 μM, duplicates) was 80.095%, the “inhibition rate, Hs-KMO cellular assay” value ([1]; conc 0.3 μM, duplicates) was 94.377% and the “inhibition rate, Hs-KMO cellular assay” value ([1]; conc 1 μM, duplicates) was 98.875%. For the same compound, the “inhibition rate, Hs-KMO cellular assay” value ([1]; conc 3 μM, duplicates) was 103.175%, the “inhibition rate, Hs-KMO cellular assay” value ([1]; conc 10 μM, duplicates) was 102.973% and the “inhibition rate, Hs-KMO cellular assay” value ([1]; conc 30 μM, duplicates) was 104.572%. The inhibition at 0.1 µM ([2]; HEK293, conc 0.1 μM, duplicates, read-out: inhibition rate, Rat-KMO cellular assay (Figure 1D source data)) was 6.06%, the inhibition at 0.3 µM ([2]; HEK293, conc 0.3 μM, duplicates, read-out: inhibition rate, Rat-KMO cellular assay (Figure 1D source data)) was 28.6% and the inhibition at 1 µM ([2]; HEK293, conc 1 μM, duplicates, read-out: inhibition rate, Rat-KMO cellular assay (Figure 1D source data)) was 29.2%. The inhibition at 3 µM ([2]; HEK293, conc 3 μM, duplicates, read-out: inhibition rate, Rat-KMO cellular assay (Figure 1D source data)) was 55.7%, the inhibition at 10 µM ([2]; HEK293, conc 10 μM, duplicates, read-out: inhibition rate, Rat-KMO cellular assay (Figure 1D source data)) was 81.2% and the inhibition at 30 µM ([2]; HEK293, conc 30 μM, duplicates, read-out: inhibition rate, Rat-KMO cellular assay (Figure 1D source data)) was 94.7%. The IC50 ([2]; HEK293 cells expressing rat KMO, LC/MS) was 1.9 µM, the “inhibition rate, Rat-KMO cellular assay (Figure 1D source data)” value (“inhibition rate, Rat-KMO cellular assay” below) ([2]; conc 0.1 μM, duplicates) was 5.770% and the “inhibition rate, Rat-KMO cellular assay” value ([2]; conc 0.3 μM, duplicates) was 28.560%. The “inhibition rate, Rat-KMO cellular assay” value ([2]; conc 1 μM, duplicates) was 33.805%, the “inhibition rate, Rat-KMO cellular assay” value ([2]; conc 3 μM, duplicates) was 50.255% and the “inhibition rate, Rat-KMO cellular assay” value ([2]; conc 10 μM, duplicates) was 82.819%. The “inhibition rate, Rat-KMO cellular assay” value ([2]; conc 30 μM, duplicates) was 94.698%.
